From article PMC3199943, “Screening the MayBridge Rule of 3 Fragment Library for Compounds That Interact with the Trypanosoma brucei myo-Inositol-3-Phosphate Synthase and/or Show Trypanocidal Activity” (Molecular Biology International, 2011)

Tests used:
HeLa cells = test: cells; conditions: for HeLa Cells Alamar Blue: Supplementary Table 1, compound 0.5 mM, percentage of controls, mean ± SD (n=3) or SE (n=2); for viability at 500 µM: Homo sapiens, HeLa, 65 h, read-out: HeLa Cells Alamar Blue
Summary of the method: (§1)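 Viability by Alamar Blue (5 h) after ~65 h drug treatment; seeding density 2 × 10^4 cells/well in DMEM supplemented with 10% FCS and 2 mM L-Glutamine.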

TbINO1 = biological target: T1, TbINO1 (Trypanosoma brucei brucei, UniProt Q5QQ46); test: biochemical; type: binding; conditions: for Tb Ino1 Tm Shift [˚C]: Supplementary Table 1, compound 1mM, mean ± SD from Boltzman curve fitting; for ΔTm at 1000 µM: read-out: Tb Ino1 Tm Shift [˚C]
T1 sequence (Q5QQ46 1-528): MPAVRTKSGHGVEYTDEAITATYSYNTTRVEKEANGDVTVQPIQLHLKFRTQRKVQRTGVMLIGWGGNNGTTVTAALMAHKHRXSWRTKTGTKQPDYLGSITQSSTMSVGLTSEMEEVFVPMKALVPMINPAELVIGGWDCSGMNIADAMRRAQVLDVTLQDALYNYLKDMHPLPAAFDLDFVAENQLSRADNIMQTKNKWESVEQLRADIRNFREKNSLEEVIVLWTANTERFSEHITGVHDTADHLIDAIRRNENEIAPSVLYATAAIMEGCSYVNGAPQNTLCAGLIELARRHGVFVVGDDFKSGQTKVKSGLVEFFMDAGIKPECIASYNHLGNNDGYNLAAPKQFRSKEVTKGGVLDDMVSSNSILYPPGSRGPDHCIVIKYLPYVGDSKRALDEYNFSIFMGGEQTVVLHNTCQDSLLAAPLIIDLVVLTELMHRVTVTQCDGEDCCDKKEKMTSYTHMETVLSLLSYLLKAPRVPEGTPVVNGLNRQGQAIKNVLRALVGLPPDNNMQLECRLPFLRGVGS

A549 cells = test: Cytotoxicity against A549 cells, Alamar Blue; type: cell-based; conditions: Supplementary Table 1, compound 0.5 mM, percentage of controls (n=1); for viability at 500 µM: Homo sapiens, A549, 65 h
Summary of the method: as §1

CCOC(=O)c1c(N)sc(C)c1C [compound 617, ethyl 2‐amino‐4,5‐dimethylthiophene‐3‐carboxylate]
HeLa Cells Alamar Blue (HeLa cells): 69.1 ± 9.3 percentage of controls | Tb Ino1 Tm Shift [˚C] (TbINO1): 1.47 ± 0.07 °C | A549 Cells Alamar Blue (A549 cells): 75.2 percentage of controls

Cn1nccc1N [compound 7, 1‐methyl‐1H‐pyrazol‐5‐ylamine]
viability at 500 µM (HeLa cells): 106 ± 6.2% | ΔTm at 1000 µM (TbINO1): 0.12 ± 0.06 °C | viability at 500 µM (A549 cells): 124%

Cc1cccc(C(N)=O)c1C [compound 176, 2,3‐dimethylbenzamide]
viability at 500 µM (HeLa cells): 88.2 ± 12.4% | ΔTm at 1000 µM (TbINO1): 0.06 ± 0.07 °C | viability at 500 µM (A549 cells): 68.7%

(Piperidino‐3‐pyridinyl)methanol [compound 569]
HeLa Cells Alamar Blue (HeLa cells): 89.2 ± 4.8 percentage of controls | Tb Ino1 Tm Shift [˚C] (TbINO1): 0.35 ± 0.07 °C | A549 Cells Alamar Blue (A549 cells): 106.4 percentage of controls

ON=C1CCCc2ccccc21 [compound 279, 1,2,3,4‐tetrahydronaphthalen‐1‐one oxime]
HeLa Cells Alamar Blue (HeLa cells): 19.9 ± 19.7 percentage of controls | Tb Ino1 Tm Shift [˚C] (TbINO1): 0.76 ± 0.08 °C | A549 Cells Alamar Blue (A549 cells): 16.9 percentage of controls
